# Measurements as given in patent US20090143279A1 (priority 2007, published 2009).
# Like-named read-outs stand apart in the source and are kept apart here.
# Key:
# [1] = test system: mitochondrial membrane potential; format: cell-based, mouse; details: Conc 20 μM; for ΔΨm (composite Z-score): normalized score vs mock-treated (DMSO) wells
# reactive oxygen species = format: cell-based, mouse; details: Conc 20 μM; for ROS (composite Z-score): normalized score vs mock-treated (DMSO) wells
# OXPHOS gene expression = format: cell-based, mouse; details: Conc 20 μM; for GE-HTS (composite Z-score): normalized score vs mock-treated (DMSO) wells
# nuOXPHOS transcripts = format: cell-based, mouse; details: Conc 20 μM; for nucOX (composite Z-score): normalized score vs mock-treated (DMSO) wells
# mtOXPHOS transcripts = format: cell-based, mouse; details: Conc 20 μM; for mitoOX (composite Z-score): normalized score vs mock-treated (DMSO) wells
# cytochrome c = format: cell-based, mouse; details: Conc 20 μM; for cyt c (composite Z-score): normalized score vs mock-treated (DMSO) wells
# C2C12 myotubes = details: Conc 20 μM; for Viability (composite Z-score): normalized score vs mock-treated (DMSO) wells
# [2] = test system: cellular dehydrogenase activity; details: Conc 20 μM; for MTT (composite Z-score): normalized score vs mock-treated (DMSO) wells
# [3] = normalized composite Z-score vs mock-treated (DMSO) wells
# [4] = composite Z-score vs DMSO wells
# [5] = composite Z-score vs mock-treated (DMSO) wells
structure (smiles),measurement,setting,value
CC(=O)Oc1cc2c(c(C)c1OC(C)=O)CC=C1[C@@]2(C)CC[C@@]2(C)C3C[C@](C)(C(=O)O)CC[C@]3(C)CC[C@]12C (stereo partly drawn) [dihydrocelastryl diacetate],ΔΨm (composite Z-score),[1],−3.309
same,ROS (composite Z-score),reactive oxygen species,−3.182
same,GE-HTS (composite Z-score),OXPHOS gene expression,−1.199
same,nucOX (composite Z-score),nuOXPHOS transcripts,0.241
same,mitoOX (composite Z-score),mtOXPHOS transcripts,−3.815
same,cyt c (composite Z-score),cytochrome c,−5.617
same,Viability (composite Z-score),C2C12 myotubes,−4.472
same,MTT (composite Z-score),[2],−4.098
CC(=O)O[C@@H]1CC2C(C)(C)C(=O)CC[C@]2(C)C2CC[C@]3(C)C(=CC(=O)O[C@H]3c3ccoc3)[C@@]21C (stereo partly drawn) [dihydrodeoxygedunin],ΔΨm,[1]; [3],0.443
same,ROS,reactive oxygen species; [3],1.030
same,GE-HTS,OXPHOS gene expression; [3],−1.009
same,nucOX,nuOXPHOS transcripts; [3],−1.073
same,mitoOX,mtOXPHOS transcripts; [3],−0.631
same,cyt c,cytochrome c; [3],0.751
same,Viability,C2C12 myotubes; [3],−0.004
same,MTT,[2]; [3],−0.637
CN1C[C@H](C(=O)N[C@]2(C)O[C@@]3(O)[C@@H]4CCCN4C(=O)[C@H](Cc4ccccc4)N3C2=O)C[C@@H]2c3cccc4[nH]cc(c34)C[C@H]21 [dihydroergotamine],ΔΨm,[1]; [4],0.372
same,ROS,reactive oxygen species; [4],1.157
same,GE-HTS,OXPHOS gene expression; [4],0.008
same,nucOX,nuOXPHOS transcripts; [4],−0.021
same,mitoOX,mtOXPHOS transcripts; [4],0.143
same,cyt c,cytochrome c; [4],−0.494
same,Viability,C2C12 myotubes; [4],0.293
same,MTT,[2]; [4],−0.604
COC(=O)C[C@H]1C(C)(C)[C@@H](OC(C)=O)[C@@H]2CC3C4CC(=O)O[C@@H](c5ccoc5)[C@]4(C)CCC3[C@@]1(C)C2=O (stereo partly drawn) [dihydrofissinolide],ΔΨm,[1]; [5],0.196
same,ROS,reactive oxygen species; [5],1.029
same,GE-HTS,OXPHOS gene expression; [5],−0.253
same,nucOX,nuOXPHOS transcripts; [5],−0.350
same,mitoOX,mtOXPHOS transcripts; [5],0.041
same,cyt c,cytochrome c; [5],−0.122
same,Viability,C2C12 myotubes; [5],0.139
same,MTT,[2]; [5],−1.189
"COC(=O)[C@@H]1OC(=O)C2OC23[C@@]1(C)CCC1[C@@]2(C)CCC(=O)C(C)(C)C2C[C@@H](OC(C)=O)[C@]13C (stereo partly drawn) [dihydrogedunic acid, methyl ester]",ΔΨm,[1]; [5],−0.320
same,ROS,reactive oxygen species; [5],0.411
same,GE-HTS,OXPHOS gene expression; [5],0.244
same,nucOX,nuOXPHOS transcripts; [5],0.141
same,mitoOX,mtOXPHOS transcripts; [5],0.438
same,cyt c,cytochrome c; [5],−0.443
same,Viability,C2C12 myotubes; [5],0.103
same,MTT,[2]; [5],−1.062
CC(=O)O[C@@H]1C[C@H]2C(C)(C)C(=O)CC[C@]2(C)[C@H]2CC[C@@]3(C)[C@H](c4ccoc4)OC(=O)[C@H]4O[C@]43[C@@]21C [dihydrogedunin],ΔΨm,[1]; [5],1.079
same,ROS,reactive oxygen species; [5],−0.690
same,GE-HTS,OXPHOS gene expression; [5],0.575
same,nucOX,nuOXPHOS transcripts; [5],0.613
same,mitoOX,mtOXPHOS transcripts; [5],0.323
same,cyt c,cytochrome c; [5],0.460
same,Viability,C2C12 myotubes; [5],0.637
same,MTT,[2]; [5],−0.017
"COC(=O)[C@@H]1OC(=O)[C@H]2O[C@@]23[C@@]1(C)CCC1[C@@]2(C)CCC(=O)C(C)(C)C2C[C@@H](OC(C)=O)[C@]13C (stereo partly drawn) [dihydrogeduninic acid, methyl ester]",ΔΨm (composite Z-score),[1],−0.571
same,ROS (composite Z-score),reactive oxygen species,0.820
same,GE-HTS (composite Z-score),OXPHOS gene expression,0.739
same,nucOX (composite Z-score),nuOXPHOS transcripts,0.881
same,mitoOX (composite Z-score),mtOXPHOS transcripts,0.289
same,cyt c (composite Z-score),cytochrome c,0.117
same,Viability (composite Z-score),C2C12 myotubes,0.488
same,MTT (composite Z-score),[2],−1.004
"CCCCCC1C(=O)CCC1CC(=O)OC (stereo not drawn) [dihydrojasmonic acid, methyl ester]",ΔΨm,[1]; composite Z-score vs DMSO,−0.204
same,ROS,reactive oxygen species; composite Z-score vs DMSO,−0.386
same,GE-HTS,OXPHOS gene expression; composite Z-score vs DMSO,0.948
same,nucOX,nuOXPHOS transcripts; composite Z-score vs DMSO,0.831
same,mitoOX,mtOXPHOS transcripts; composite Z-score vs DMSO,1.068
same,cyt c,cytochrome c; composite Z-score vs DMSO,−0.281
same,Viability,C2C12 myotubes; composite Z-score vs DMSO,0.971
same,MTT,[2]; composite Z-score vs DMSO,−0.452
CCCCCC1C(=O)CCC1CC(=O)O (stereo not drawn) [dihydrojasmonic acid],ΔΨm,[1]; [3],−0.294
same,ROS,reactive oxygen species; [3],0.827
same,GE-HTS,OXPHOS gene expression; [3],−0.313
same,nucOX,nuOXPHOS transcripts; [3],−0.168
same,mitoOX,mtOXPHOS transcripts; [3],−0.505
same,cyt c,cytochrome c; [3],−0.847
same,Viability,C2C12 myotubes; [3],−1.223
same,MTT,[2]; [3],−0.149
COc1c(CC(=O)c2cc3c(cc2O)OC(C)(C)C(O)C3)ccc2c1C=CC(C)(C)O2 (stereo not drawn) [dihydromunduletone],ΔΨm,[1]; [3],2.250
same,ROS,reactive oxygen species; [3],−0.049
same,GE-HTS,OXPHOS gene expression; [3],−1.331
same,nucOX,nuOXPHOS transcripts; [3],−1.276
same,mitoOX,mtOXPHOS transcripts; [3],−1.248
same,cyt c,cytochrome c; [3],−0.146
same,Viability,C2C12 myotubes; [3],1.580
same,MTT,[2]; [3],−0.805
Cc1cc(=O)c2c(O)c3c(cc2o1)OCC(C)CC3 (stereo not drawn) [dihydroptaeroxylin],ΔΨm,[1]; [3],−0.192
same,ROS,reactive oxygen species; [3],0.151
same,GE-HTS,OXPHOS gene expression; [3],−0.581
same,nucOX,nuOXPHOS transcripts; [3],−0.410
same,mitoOX,mtOXPHOS transcripts; [3],−0.787
same,cyt c,cytochrome c; [3],0.403
same,Viability,C2C12 myotubes; [3],0.605
same,MTT,[2]; [3],−0.526
"COc1ccc(-c2c(O)c3c(OC)c4c(cc3oc2=O)OC(C)(C)CC4)cc1 [dihydrorobustic acid, reference compound]",ΔΨm,[1]; composite Z-score vs DMSO,0.000
same,ROS,reactive oxygen species; composite Z-score vs DMSO,−0.115
same,GE-HTS,OXPHOS gene expression; composite Z-score vs DMSO,−0.836
same,nucOX,nuOXPHOS transcripts; composite Z-score vs DMSO,−0.849
same,mitoOX,mtOXPHOS transcripts; composite Z-score vs DMSO,−0.701
same,cyt c,cytochrome c; composite Z-score vs DMSO,0.757
same,Viability,C2C12 myotubes; composite Z-score vs DMSO,−0.721
same,MTT,[2]; composite Z-score vs DMSO,−0.780
